{"source": "patent US12060355B2", "about": "“Compounds for use in the treatment of fascioliasis” (Merck Patent GmbH, priority 2018, dated 2024)", "key": {"F. hepatica adult fluke": {"test_system": "F. hepatica adult fluke", "test": "F. hepatica adult fluke motility score, in vitro", "format": "cell-based, Fasciola hepatica", "design": "key: Good movement Score 1 • (Curled, sticking on wall, movement on petri plate or conical flask); Moderate movement Score 2 • (Less vigor but more than 10 seconds pulses or peristaltic waves); Resting Score 3 • (Less than 10 second pulses in head and body); Apathetic Score 4 • (Head and body with less than 2 second pulses); Faint movement of suckers Score 5 • (Movement of oral or ventral suckers only, whole body paralyzed); Inert Score 6 • (No movement at all or dead)", "settings": "for F. hepatica motility score after 24 h / F. hepatica motility score after 48 h / F. hepatica motility score after 72 h: adult fluke; for F. hepatica motility score after 24 h: score 1 (good movement) to 6 (inert); for F. hepatica motility score after 48 h / F. hepatica motility score after 72 h: score 1 to 6 (inert)", "description": "The routine biological assays using adult liver fluke are described in Alessandra Crusco, Cinzia Bordoni, Anand Chakroborty, Kezia C. L. Whatley, Helen Whiteland, Andrew D. Westwell, Karl F. Hoffmann, “Design, synthesis and anthelmintic activity of 7-keto-sempervirol analogues”, European Journal of Medicinal Chemistry, Volume 152, 2018, Pages 87-100.\nThe routine biological assays using adult or juvenile S. mansoni worms and cytotoxicity assays using MRC-5 cells have been disclosed previously in Mansour, N. R., et al. (2016). “High Throughput Screening Identifies Novel Lead Compounds with Activity against Larval, Juvenile and Schistosoma mansoni PLoS Negl Trop Dis 10(4): e0004659. […] Motility is scored as per the table below: • Good movement Score 1 • (Curled, sticking on wall, movement on petri plate or conical flask) • Moderate movement Score 2 • (Less vigor but more than 10 seconds pulses or peristaltic waves) • Resting Score 3 • (Less than 10 second pulses in head and body) • Apathetic Score 4 • (Head and body with less than 2 second pulses) • Faint movement of suckers Score 5 • (Movement of oral or ventral suckers only, whole body paralyzed) • Inert Score 6 • (No movement at all or dead) • (b) S. mansoni adult worms • (c) S. mansoni juvenile worms • (d) S. haemotobium adult worms • (e) Cytotoxicity against human MRC-5 cell line • (f) Cytotoxicity against human HepG2 cell lines"}, "[1]": {"test_system": "S. mansoni juvenile worms", "test": "S. mansoni juvenile worm assay, in vitro", "format": "cell-based", "settings": "Schistosoma mansoni, read-out: S. mansoni Juvenile", "experimental": "(§1) The routine biological assays using adult or juvenile S. mansoni worms and cytotoxicity assays using MRC-5 cells have been disclosed previously in Mansour, N. R., et al. (2016). “High Throughput Screening Identifies Novel Lead Compounds with Activity against Larval, Juvenile and Schistosoma mansoni PLoS Negl Trop Dis 10(4): e0004659. Cytotoxicity assays using the HepG2 cell line were carried out as described in Molecular Diversity (2015) 19, 251-261. • (a) F. hepatica adult fluke motility score tested at 5 μM. Motility is scored as per the table below: • Good movement Score 1 • (Curled, sticking on wall, movement on petri plate or conical flask) • Moderate movement Score 2 • (Less vigor but more than 10 seconds pulses or peristaltic waves) • Resting Score 3 • (Less than 10 second pulses in head and body) • Apathetic Score 4 • (Head and body with less than 2 second pulses) • Faint movement of suckers Score 5 • (Movement of oral or ventral suckers only, whole body paralyzed) • Inert Score 6 • (No movement at all or dead) • (b) S. mansoni adult worms • (c) S. mansoni juvenile worms • (d) S. haemotobium adult worms • (e) Cytotoxicity against human MRC-5 cell line • (f) Cytotoxicity against human HepG2 cell lines"}, "human HepG2 cell lines": {"test_system": "human HepG2 cell lines", "format": "cell-based", "settings": "human HepG2 cell line"}, "S. mansoni adult worms": {"test_system": "S. mansoni adult worms", "test": "S. mansoni adult worm assay, in vitro", "format": "cell-based", "settings": "Schistosoma mansoni, read-out: S. mansoni Adult", "experimental": "as §1"}, "juvenile worms": {"test_system": "juvenile worms", "test": "In vivo mouse model infected with juvenile worms, worm recovery", "design": "species or system S. mansoni", "settings": "Schistosoma mansoni, 360 h, mice, juvenile infection, Formulation F1, read-out: Percent worm reduction", "experimental": "Methods for the subcutaneous infection of mice and subsequent worm recovery were as described in Mansour et al (2016) except that infection was with 150 cercariae and the perfusion medium was citrate saline (0.9% sodium chloride, 1.5% tri-sodium citrate). Perfusion was carried out 8 days (adult infections) or 15 days (juvenile infections) after treatment. Perfuseate was collected into 30 mL universal tubes. RBC (Red Blood Cells) were removed by allowing the perfuseate to settle for 10 min, removal of most of the supernatant and washing once as above with 10 mL perfusion medium. A drop of dilute aqueous saponin solution was added to lyse any remaining RBC and the worm suspension poured into a grid-marked small petri dish. The tube was rinsed out into the petri dish and examined for any remaining worms. Worms were counted using a dissecting microscope. The mouse livers removed after perfusion were squashed between two thick glass plates and examined visually and any remaining worms added to those counted as above.\nFor testing efficacy against the juvenile worms, treatment was on day 25 post infection and for testing against the adult worms on day 42 post infection. Drugs were suspended in 7% Tween-80/3% Ethanol/double distilled water and drug dispersal was facilitated by vortexing and using a sonicating water bath (Formulation F1). […]"}, "human MRC-5 cell line": {"test_system": "human MRC-5 cell line", "test": "Cytotoxicity against human MRC-5 cell line", "format": "cell-based", "experimental": "as §1"}}, "note": "Read-outs that look alike come from different tables or passages of the source.", "data": [{"smiles": "CC(C)c1nn2ccc(-c3ccc(F)c(C(F)(F)F)c3)cc2c1-c1ccc2[nH]ncc2c1F", "note": "[Example 55, 4-Fluoro-5-[5-(4-fluoro-3-trifluoromethyl-phenyl)-2-isopropylpyrazolo[1,5-a]pyridin-3-yl]-1H-indazole]", "values": [{"measurement": "F. hepatica motility score after 24 h", "setting": "F. hepatica adult fluke; 5 μM", "result": "(6, 6, 6) at 5 μM"}, {"measurement": "F. hepatica motility score after 48 h", "setting": "F. hepatica adult fluke; 5 μM", "result": "(6, 6, 6) at 5 μM"}, {"measurement": "F. hepatica motility score after 72 h", "setting": "F. hepatica adult fluke; 5 μM", "result": "(6, 6, 6) at 5 μM"}, {"measurement": "IC50", "setting": "[1]; juvenile worms in vitro, IC50", "result": 22, "unit": "nM"}, {"measurement": "Cytotox HepG2", "setting": "human HepG2 cell lines", "result": 11.1, "unit": "µM"}, {"measurement": "IC50", "setting": "S. mansoni adult worms; adult worms in vitro", "result": 28, "unit": "nM"}]}, {"smiles": "CC(C)c1nc2cnc(-c3ccc(F)c(C(F)(F)F)c3)cn2c1-c1c(F)cc(O)cc1F", "note": "[Example 17, 3,5-difluoro-4-[2-(propan-2-yl)-6-[4-fluoro-3-(trifluoromethyl)phenyl]imidazo[1,2-a]pyrazin-3-yl]phenol]", "values": [{"measurement": "inhibition in vivo at 50 mg/kg", "setting": "juvenile worms; oral 50 mg/kg", "result": 38, "unit": "%"}, {"measurement": "inhibition in vivo at 200 mg/kg", "setting": "juvenile worms; oral 200 mg/kg", "result": 84, "unit": "%"}, {"measurement": "Mean motility score of F hepatica at 24 h", "setting": "F. hepatica adult fluke; 0.04 μM", "result": "1, 1, 1"}, {"measurement": "Mean motility score of F hepatica at 48 h", "setting": "F. hepatica adult fluke; 0.04 μM", "result": "1, 1, 1"}, {"measurement": "Mean motility score of F hepatica at 72 h", "setting": "F. hepatica adult fluke; 0.04 μM", "result": "1, 1, 1"}, {"measurement": "Mean motility score of F hepatica at 24 h", "setting": "F. hepatica adult fluke; 0.2 μM", "result": 3}, {"measurement": "Mean motility score of F hepatica at 48 h", "setting": "F. hepatica adult fluke; 0.2 μM", "result": 3}, {"measurement": "Mean motility score of F hepatica at 72 h", "setting": "F. hepatica adult fluke; 0.2 μM", "result": 6}, {"measurement": "Mean motility score of F hepatica at 24 h", "setting": "F. hepatica adult fluke; 1 μM", "result": "6, 6, 6"}, {"measurement": "Mean motility score of F hepatica at 48 h", "setting": "F. hepatica adult fluke; 1 μM", "result": "6, 6, 6"}, {"measurement": "Mean motility score of F hepatica at 72 h", "setting": "F. hepatica adult fluke; 1 μM", "result": "6, 6, 6"}, {"measurement": "Mean motility score of F hepatica at 24 h", "setting": "F. hepatica adult fluke; 5 μM", "result": "6, 6, 6"}, {"measurement": "Mean motility score of F hepatica at 48 h", "setting": "F. hepatica adult fluke; 5 μM", "result": "6, 6, 6"}, {"measurement": "Mean motility score of F hepatica at 72 h", "setting": "F. hepatica adult fluke; 5 μM", "result": "6, 6, 6"}, {"measurement": "F. hepatica motility score after 24 h", "setting": "F. hepatica adult fluke; 5 μM", "result": "(6, 6, 6) at 5 μM"}, {"measurement": "F. hepatica motility score after 48 h", "setting": "F. hepatica adult fluke; 5 μM", "result": "(6, 6, 6) at 5 μM"}, {"measurement": "F. hepatica motility score after 72 h", "setting": "F. hepatica adult fluke; 5 μM", "result": "(6, 6, 6) at 5 μM"}, {"measurement": "Cytotox HepG2", "setting": "human HepG2 cell lines", "result": 7.1, "unit": "µM"}]}, {"smiles": "CCc1nc2cnc(-c3cccc(C(F)(F)F)c3)cn2c1-c1ccc(OC)c(O)c1", "note": "[Example 7, 2-methoxy-5-[2-ethyl-6-[3-(trifluoromethyl)phenyl]imidazo[1,2-a]pyrazin-3-yl]phenol]", "values": [{"measurement": "Cytotox MRC-5", "setting": "human MRC-5 cell line", "result": ">50", "unit": "µM"}, {"measurement": "Cytotox HepG2", "setting": "human HepG2 cell lines", "result": ">30", "unit": "µM"}]}, {"smiles": "CC(C)c1nc2cnc(-c3ccc(F)c(C(F)(F)F)c3)cn2c1-c1c(F)cc(OP(=O)(O)O)cc1F", "note": "[Example 40, 3,5-difluoro-4-{6-[4-fluoro-3-(trifluoromethyl)phenyl]-2-(propan-2-yl)imidazo[1,2-a]pyrazin-3-yl}phenoxyphosphonic acid]", "values": [{"measurement": "IC50", "setting": "[1]", "result": 25, "unit": "nM"}, {"measurement": "Cytotox HepG2", "setting": "human HepG2 cell lines", "result": 6.5, "unit": "µM"}, {"measurement": "IC50", "setting": "S. mansoni adult worms", "result": 27, "unit": "nM"}]}, {"smiles": "CC(C)c1nc2cnc(-c3cccc(C(F)(F)F)c3)cn2c1-c1ccc(OP(=O)(O)O)cc1F", "note": "[Example 3, 3-fluoro-4-[2-(propan-2-yl)-6-[3-(trifluoromethyl)phenyl]imidazo[1,2-a]pyrazin-3-yl]phenoxyphosphonic acid]", "values": [{"measurement": "IC50", "setting": "[1]", "result": 130, "unit": "nM"}, {"measurement": "Cytotox HepG2", "setting": "human HepG2 cell lines", "result": 9.2, "unit": "µM"}, {"measurement": "IC50", "setting": "S. mansoni adult worms", "result": "< 49", "unit": "nM"}]}]}
